Laboratory results: the NIST ThermoML archive (doi:10.1016/j.fluid.2014.08.002)
Numbers after ± are expanded uncertainties.

settings: 298.15 K; 101.3 kPa; Liquid; Vibrating tube method

mass density [kg/m3] | SMILES
944.2 ± 0.3 | CC1(C)OCCO1 [2,2-dimethyl-1,3-dioxolane]
789.5 ± 0.2 | CCO [ethanol]
683.8 ± 0.3 | CCCCCCC [heptane]

SMILES | mass density [kg/m3]
Cc1ccccc1 [toluene] | 866.9 ± 0.2
